From patent publication US4988699A, “Substituted tetrahydrobenzothiazoles as dopaminergic agents” (Warner-Lambert Company, priority 1989, dated 1991) come the findings set out here.

Molecules are shown by their SMILES. Where two headings read alike, the source gives them in different places.

In experiment [1] the test system is dopamine synthesis in rats. The experiment is described as follows: Inhibition of dopamine synthesis in rats. It counts as in vivo. The following applies: IP. On the procedure:
(§1) The compounds of Formula I are valuable dopaminergic agents. […] Thus, the compounds of Formula I were tested for their ability to inhibit locomotor activity in mice according to the assay described by J. R. McLean, et al, Pharmacology, Biochemistry and Behavior, Volume 8, pages 97-99 (1978); for their ability to inhibit haloperidol binding in a receptor assay described by D. R. Burt, et al, Molecular Pharmacology, Volume 12, pages 800-812 (1976); and for their ability to inhibit dopamine synthesis in rats according to the protocol described by J. R. Walters and R. H. Roth, Naunyn--Schmiedeberg's Archives of Pharmacology, Volume 296, pages 5-14 (1976). The above test methods are incorporated herein by reference.

Experiment [2] deals with T1, haloperidol binding in a receptor assay (Bos taurus, UniProt P20288).
T1 construct: from tissue; host or cells: calf brain (caudate/striatal) membranes, inferred from the cited method
T1 sequence (P20288 whole entry): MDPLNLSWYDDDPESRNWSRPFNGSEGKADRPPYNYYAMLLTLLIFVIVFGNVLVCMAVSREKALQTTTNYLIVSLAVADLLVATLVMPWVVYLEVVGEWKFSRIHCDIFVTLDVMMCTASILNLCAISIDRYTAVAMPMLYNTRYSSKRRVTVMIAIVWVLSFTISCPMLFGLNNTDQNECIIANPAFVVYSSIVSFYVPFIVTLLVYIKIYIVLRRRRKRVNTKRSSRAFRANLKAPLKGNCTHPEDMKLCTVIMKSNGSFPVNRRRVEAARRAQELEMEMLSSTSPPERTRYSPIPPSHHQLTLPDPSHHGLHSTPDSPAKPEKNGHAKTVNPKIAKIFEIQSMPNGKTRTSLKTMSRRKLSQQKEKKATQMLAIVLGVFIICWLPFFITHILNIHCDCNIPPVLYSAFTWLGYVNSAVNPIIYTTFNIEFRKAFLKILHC
The experiment is described as follows: Inhibition of haloperidol binding. On the procedure: as §1

The subject of experiment [3] is locomotor activity in mice. Briefly: Inhibition of locomotor activity in mice. The experiment is classed as in vivo. The following applies: for ED50: Mus musculus, ip, read-out: Inhibition of Locomotor Activity in Mice ED50. On the procedure: as §1

As usually defined, the IC50 is the concentration that gives 50% inhibition. Broadly, the ED50 is the midpoint of the dose-response relation.

With `Nc1nc2c(s1)CC(N1CCN(c3ccccn3)CC1)CC2` (racemic) [Example 1, (±)-4,5,6,7-Tetrahydro-6-[4-(2-pyridinyl)-1-piperazinyl]-2-benzothiazolamine], the “Inhibition of Dopamine Synthesis in Rats” value in experiment [1] (at 4.4 mg/kg) is 50%. The compound further gave an IC50 in experiment [2] of 876 nM. In addition, the ED50 in experiment [3] (mice, IP) came out at 6.6 mg/kg.

In the case of `Nc1nc2c(s1)CC(N1CC=C(c3ccccc3)CC1)CC2` (racemic) [Example 1a, (±)-6-(3,6-Dihydro-4-phenyl-1(2H)-pyridinyl)-4,5,6,7-tetrahydro-2-benzothiazolamine], in experiment [1] (at 10 mg/kg), the “Inhibition of Dopamine Synthesis in Rats” value is listed as 69%. Also, in experiment [3], the ED50 was 1.5 mg/kg.

Take `Nc1nc2c(s1)CC(N1CCN(c3ccccc3)CC1)CC2` (racemic) [Example 1b, (±)-4,5,6,7-Tetrahydro-6-(4-phenyl-1-piperazinyl)-2-benzothiazolamine]: the ED50 in experiment [3] (mice, IP) turned out to be 6.1 mg/kg.

On to `Nc1nc2c(s1)CC(N1CCN(c3ncccn3)CC1)CC2` (racemic) [Example 1c, (±)-4,5,6,7-Tetrahydro-6-[4-(2-pyrimidinyl)-1-piperazinyl]-2-benzothiazolamine], for which the ED50 in experiment [3] (mice, IP) was 30 mg/kg.

As for `O=C(Nc1nc2c(s1)CC(N1CCN(c3ccccn3)CC1)CC2)c1ccccc1` (racemic) [Example 2, (±)-N-[4,5,6,7-Tetrahydro-6-[4-(2-pyridinyl)-1-piperazinyl]-2-benzothiazolyl]benzamide], the “Inhibition of Dopamine Synthesis in Rats” value in experiment [1] (at 10 mg/kg) was determined as 59%. Besides, the ED50 in experiment [3] (mice, IP) stood at 3.7 mg/kg.

Consider `c1ccc(N2CCN(CC3CCc4ncsc4C3)CC2)nc1` (racemic) [Example 5, (±)-4,5,6,7-tetrahydro-6-[[4-(2-pyridinyl)-1-piperazinyl]methyl]benzothiazole], for which the ED50 in experiment [3] (mice, IP) was found to be 7.4 mg/kg.

For `Nc1nc2c(s1)CC(CN1CCN(c3ccccn3)CC1)CC2` (racemic) [Example 7, (±)-4,5,6,7-Tetrahydro-6-[[4-(2-pyridinyl)-1-piperazinyl]methyl]-2-benzothiazolamine], the “Inhibition of Dopamine Synthesis in Rats” value in experiment [1] (at 10 mg/kg) amounted to 48%. Also, in experiment [3] (mice, IP), the median effective dose (ED50) was determined as 7.2 mg/kg.

Regarding `Nc1nc2c(s1)CC(CN1CC=C(c3ccccc3)CC1)CC2` (racemic) [Example 8, (±)-6-[(3,6-Dihydro-4-phenyl-1(2H)-pyridinyl)methyl]-4,5,6,7-tetrahydro-2-benzothiazolamine], the ED50 in experiment [3] is 0.75 mg/kg.

For the compound `Nc1nc2c(s1)CC(CCN1CCN(c3ccccn3)CC1)CC2` (racemic) [Example 9, (±)-4,5,6,7-Tetrahydro-6-[2-[4-(2-pyridinyl)-1-piperazinyl]ethyl]-2-benzothiazolamine], the “Inhibition of Dopamine Synthesis in Rats” value in experiment [1] (at 1.3 mg/kg) is reported as 50%. Also, the half-inhibitory concentration (IC50) in experiment [2] was 105 nM. In addition, the ED50 in experiment [3] (mice, IP) is 0.21 mg/kg.

On to `Nc1nc2c(s1)CC(CCN1CC=C(c3ccccc3)CC1)CC2` (racemic) [Example 10, (±)-6-[2-(3,6-Dihydro-4-phenyl-1(2H)-pyridinyl)ethyl]-4,5,6,7-tetrahydro-2-benzothiazolamine], for which the 50% effective dose (ED50) in experiment [3] was found to be 0.4 mg/kg.

On to `Nc1nc2c(s1)CC(N1CCN(c3ccccn3)CC1)CC2` (single isomer, unassigned; (+)) [Example 3, (+)-4,5,6,7-Tetrahydro-6-[4-(2-pyridinyl)-1-piperazinyl]-2-benzothiazolamine], for which the “Inhibition of Dopamine Synthesis in Rats” value in experiment [1] (at 7.0 mg/kg) came to 50%. In experiment [2], this compound returned a half-maximal inhibitory concentration (IC50) of around 800 nM. Besides, the median effective dose (ED50) in experiment [3] (mice, IP) stood at 9.9 mg/kg.

On to `Nc1nc2c(s1)CC(CCN1CCN(c3ccccn3)CC1)CC2` (single isomer, unassigned; (+)) [Example 11, (+)-4,5,6,7-Tetrahydro-6-[2-[4-(2-pyridinyl)-1-piperazinyl]ethyl]-2-benzothiazolamine], for which, in experiment [1] (at 0.8 mg/kg), the “Inhibition of Dopamine Synthesis in Rats” value was found to be 50%. Moreover, the “Inhibition of Locomotor Activity in Mice ED50” value in experiment [3] (mice, IP) is on record as 0.37 mg/kg.

With `Nc1nc2c(s1)CC(N1CCN(c3ccccn3)CC1)CC2` (single isomer, unassigned; (-)) [Example 4, (-)-4,5,6,7-Tetrahydro-6-[4-(2-pyridinyl)-1-piperazinyl]-2-benzothiazolamine], the “Inhibition of Dopamine Synthesis in Rats” value in experiment [1] (at 4.8 mg/kg) was 50%. Further, the IC50 in experiment [2] was around 1500 nM. For the same compound, the “Inhibition of Locomotor Activity in Mice ED50” value in experiment [3] (mice, IP) is listed as 7.4 mg/kg.

On to `Nc1nc2c(s1)CC(CCN1CCN(c3ccccn3)CC1)CC2` (single isomer, unassigned; (-)) [Example 11a, (-)-4,5,6,7-Tetrahydro-6-[2-[4-(2-pyridinyl)-1-piperazinyl]ethyl]-2-benzothiazolamine], for which the “Inhibition of Dopamine Synthesis in Rats” value in experiment [1] (at 0.2 mg/kg) worked out at 50%. In experiment [3] (mice, IP), the ED50 was found to be 0.2 mg/kg.
